This is an account of results in patent US20100092497A1, “METHODS OF IMMUNE OR HAEMATOLOGICAL ENHANCEMENT, INHIBITING TUMOUR FORMATION OR GROWTH, AND TREATING OR PREVENTING CANCER” (priority 2006, published 2010).

For series [1], the system named is EL-4 T cell thymic lymphoma. Kind of series: EL-4 tumour challenge in mice fed experimental diets (tumour growth, rejection, response to paclitaxel). Format: in vivo, C57BL/6 mice. To be noted: Example 1; control diet; paclitaxel 30 mg/Kg i.p. at tumours ~0.6 cm.
A further series concerns EL-4 target cells. Kind of series: Anti-tumour cytolytic activity of splenocytes (CTL assay). It is filed as cell-based, mouse. Particulars: Example 4; high dose vitamin D (45.2 mg/Kg) by itself or Fe-saturated Lf. As for the experimental part:
Splenocytes were harvested 28 days following tumour cell injection, as specified. They were incubated at 37° C. with EL-4 target cells in graded E:T ratios in 96-well round-bottom plates. After a 4-hour incubation, 50 μl of supernatant was collected, and lysis was measured using the Cyto Tox 96 Assay Kit (Promega, Madison, Wis., USA). Background controls for non-specific target and effector cell lysis were included. After background subtraction, percentage of cell lysis was calculated using the formula: 100×(experimental-spontaneous effector-spontaneous target/maximum target-spontaneous target).

For series [2] the following is noted: daily for several years; cited from earlier work.

The structures appear in SMILES notation.

On to `CC(=O)O[C@H]1C(=O)[C@@]2(C)[C@H]([C@H](OC(=O)c3ccccc3)[C@]3(O)C[C@H](OC(=O)[C@H](O)[C@@H](NC(=O)c4ccccc4)c4ccccc4)C(C)=C1C3(C)C)[C@]1(OC(C)=O)CO[C@@H]1C[C@@H]2O` [paclitaxel, reference compound], for which, in series [1], the “tumour response to paclitaxel” value is “completely resistant”. `C=C1CC[C@H](O)C/C1=C/C=C1\CCC[C@]2(C)[C@@H]([C@H](C)CCCC(C)C)CC[C@@H]12` [vitamin D, cholecalciferol, reference compound]: the “increase in anti-tumour cytolytic activity of splenocytes, agent by itself” value in the series on EL-4 target cells came to 1.9 fold. The “daily ingestion after which most cases of toxicity were reported” value in series [2] is on record as “greater than 50,000 IU”.
